In general, half-life refers to the time needed for the level to fall by half in the phase considered. Usually IC50 stands for the concentration that inhibits the measured activity by half. The Inhibition is the share of the control response that was lost under treatment. High values mean strong suppression, low ones little suppression.

This is an account of results in ChEMBL document CHEMBL1145759, “Selective phenolic acylation of 10-hydroxycamptothecin using poly (ethylene glycol) carboxylic acid” (Bioorg Med Chem Lett, 2003).

Series [1] in a line: Half life measured in PBS. The format is ADME.
Series [2] concerns P388. As to the kind of experiment: Inhibitory activity against P388/0 Leukemia cells. The format is functional, cell-based. Particulars: Mus musculus.
A short description of series [3]: Half life measured in rat plasma. The format is ADME.
For the next series, the system named is Mus musculus. As to the kind of experiment: Inhibition of human colon tumor (LS174T) xenograft in nude mice. The format is functional. In general terms: A xenograft is tissue or cells of one species grown in another, often human tumour cells in immunodeficient mice.
The subject of series [4] is P388. As to the kind of experiment: Inhibitory activity against P388 Leukemia cells. The settings on record: Mus musculus. The format is functional, cell-based.

Turning to `CC[C@@]1(O)C(=O)OCc2c1cc1n(c2=O)Cc2cc3cc(OC(=O)COCCO)ccc3nc2-1`, the half-life was 300 min in series [1] and 7.2 min in series [3]. Moreover, the half-maximal inhibitory concentration (IC50) in the series on P388 [2] amounted to 55 nM. Further, in the series on Mus musculus, the Inhibition is reported as 57.6%.
Turning to `CC[C@@]1(O)C(=O)OCc2c1cc1n(c2=O)Cc2cc3ccccc3nc2-1` [CAMPTOTHECIN], the Inhibition in the series on Mus musculus is listed as 4.9%. Further, the IC50 with P388 [4] is 7 nM.
On to `CC[C@@]1(O)C(=O)OCc2c1cc1n(c2=O)Cc2cc3cc(O)ccc3nc2-1` [HYDROXYCAMPTOTHECIN], for which the Inhibition with Mus musculus amounted to 36.5%. The molecule further gave an IC50 in the series with P388 [4] of 12 nM.
